Experimental data: BindingDB's records for doi:10.1016/j.bmcl.2021.128422 (Tohoku Medical and Pharmaceutical University, 2021)
pIC50: −log10 of the molar value.

Each molecule was assayed against Maltase-glucoamylase (Homo sapiens, UniProt O43451) (assay: Inhibition of alpha-glucosidase (unknown origin) using p-nitrophenyl-alpha-D-glucopyranoside as substrate incubated for 50 mins by microplate reader analysis).
Sequence of Maltase-glucoamylase (O43451 whole entry): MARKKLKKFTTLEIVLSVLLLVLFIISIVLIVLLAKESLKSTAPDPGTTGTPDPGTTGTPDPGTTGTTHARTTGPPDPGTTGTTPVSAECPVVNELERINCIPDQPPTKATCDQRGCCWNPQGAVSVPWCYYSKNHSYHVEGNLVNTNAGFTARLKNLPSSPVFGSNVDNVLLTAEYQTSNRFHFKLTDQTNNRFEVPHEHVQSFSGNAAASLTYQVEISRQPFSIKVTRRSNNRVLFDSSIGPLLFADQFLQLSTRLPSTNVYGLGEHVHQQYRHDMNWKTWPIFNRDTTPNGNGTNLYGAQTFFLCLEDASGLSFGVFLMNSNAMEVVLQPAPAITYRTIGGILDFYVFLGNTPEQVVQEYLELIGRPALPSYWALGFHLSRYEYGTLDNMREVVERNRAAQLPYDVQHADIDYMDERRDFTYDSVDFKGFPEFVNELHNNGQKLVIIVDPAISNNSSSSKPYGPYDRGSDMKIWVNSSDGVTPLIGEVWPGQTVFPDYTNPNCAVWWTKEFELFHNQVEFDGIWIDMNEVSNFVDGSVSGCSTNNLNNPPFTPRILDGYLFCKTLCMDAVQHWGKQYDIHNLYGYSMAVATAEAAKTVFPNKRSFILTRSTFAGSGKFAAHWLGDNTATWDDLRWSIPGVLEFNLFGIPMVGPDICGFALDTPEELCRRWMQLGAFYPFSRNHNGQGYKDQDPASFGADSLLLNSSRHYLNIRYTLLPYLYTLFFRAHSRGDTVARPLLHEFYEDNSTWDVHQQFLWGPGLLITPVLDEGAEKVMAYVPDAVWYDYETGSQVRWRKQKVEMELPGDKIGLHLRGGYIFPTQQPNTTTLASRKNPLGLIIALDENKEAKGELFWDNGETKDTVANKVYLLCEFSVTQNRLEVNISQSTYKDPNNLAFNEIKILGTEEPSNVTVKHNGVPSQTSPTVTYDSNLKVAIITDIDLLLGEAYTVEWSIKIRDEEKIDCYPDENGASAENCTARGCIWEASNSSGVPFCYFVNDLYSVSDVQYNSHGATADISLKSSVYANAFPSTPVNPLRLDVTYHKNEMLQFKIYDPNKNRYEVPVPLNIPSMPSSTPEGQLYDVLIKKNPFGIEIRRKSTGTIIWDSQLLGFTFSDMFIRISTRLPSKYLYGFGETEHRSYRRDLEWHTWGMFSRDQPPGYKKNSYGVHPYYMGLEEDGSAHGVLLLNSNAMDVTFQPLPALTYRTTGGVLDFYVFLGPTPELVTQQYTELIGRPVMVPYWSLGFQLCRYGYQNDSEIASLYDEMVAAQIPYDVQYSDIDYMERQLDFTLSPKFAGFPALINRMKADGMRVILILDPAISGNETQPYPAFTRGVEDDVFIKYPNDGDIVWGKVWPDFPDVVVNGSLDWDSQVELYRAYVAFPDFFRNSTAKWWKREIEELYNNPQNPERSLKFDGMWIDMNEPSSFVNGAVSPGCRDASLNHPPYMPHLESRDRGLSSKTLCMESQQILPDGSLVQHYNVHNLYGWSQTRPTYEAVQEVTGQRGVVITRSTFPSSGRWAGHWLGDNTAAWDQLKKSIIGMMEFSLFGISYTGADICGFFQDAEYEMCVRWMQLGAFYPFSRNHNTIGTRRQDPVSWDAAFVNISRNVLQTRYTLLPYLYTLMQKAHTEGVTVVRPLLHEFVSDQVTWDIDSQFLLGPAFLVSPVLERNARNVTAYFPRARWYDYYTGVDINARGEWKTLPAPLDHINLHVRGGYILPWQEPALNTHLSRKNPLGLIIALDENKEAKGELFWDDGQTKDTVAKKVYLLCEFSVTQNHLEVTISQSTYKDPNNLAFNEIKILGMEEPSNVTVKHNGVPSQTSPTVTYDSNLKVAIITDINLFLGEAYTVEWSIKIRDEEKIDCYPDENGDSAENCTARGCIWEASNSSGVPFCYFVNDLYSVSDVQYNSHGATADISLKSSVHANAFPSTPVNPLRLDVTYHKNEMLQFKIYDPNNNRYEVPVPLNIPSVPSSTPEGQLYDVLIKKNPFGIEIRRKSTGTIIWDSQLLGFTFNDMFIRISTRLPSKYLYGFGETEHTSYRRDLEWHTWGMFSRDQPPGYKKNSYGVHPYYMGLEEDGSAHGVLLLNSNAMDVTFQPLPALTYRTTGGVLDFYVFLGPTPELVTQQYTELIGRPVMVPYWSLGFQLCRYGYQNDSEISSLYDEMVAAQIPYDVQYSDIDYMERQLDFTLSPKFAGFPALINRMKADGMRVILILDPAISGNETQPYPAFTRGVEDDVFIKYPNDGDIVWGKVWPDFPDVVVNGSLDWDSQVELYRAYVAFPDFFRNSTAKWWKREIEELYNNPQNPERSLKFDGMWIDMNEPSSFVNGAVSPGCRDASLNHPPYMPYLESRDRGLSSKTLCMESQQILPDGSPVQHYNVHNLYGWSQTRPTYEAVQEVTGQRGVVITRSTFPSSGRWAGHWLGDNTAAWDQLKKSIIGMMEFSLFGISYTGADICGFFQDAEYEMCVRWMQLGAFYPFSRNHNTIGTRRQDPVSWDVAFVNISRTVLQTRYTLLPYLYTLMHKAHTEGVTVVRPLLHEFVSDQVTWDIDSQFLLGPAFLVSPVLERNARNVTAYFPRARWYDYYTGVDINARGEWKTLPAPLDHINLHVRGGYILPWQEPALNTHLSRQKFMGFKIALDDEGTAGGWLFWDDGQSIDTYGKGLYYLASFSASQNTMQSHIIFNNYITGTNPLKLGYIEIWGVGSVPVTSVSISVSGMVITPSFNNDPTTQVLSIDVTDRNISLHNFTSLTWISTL

| pIC50 | Structure (SMILES) |
| --- | --- |
| < 4.54 | C=C1C(=O)O[C@@H]2/C=C(\C)CC/C=C(\C)C[C@@H](OC(=O)/C(=C\C)CO)[C@@H]12 |
| < 4.54 | C=C1C(=O)O[C@@H]2/C=C(\C)CC/C=C(\C)C[C@@H](OC(=O)/C(=C\COC(C)=O)CO)[C@@H]12 |
| < 4.60 | C=C1C(=O)O[C@@H]2/C=C(\C)[C@@H](O)C/C=C(\C)C[C@@H](OC(=O)/C(=C\C)COC(C)=O)[C@@H]12 |
| < 4.60 | C=C1C(=O)O[C@@H]2/C=C(\C)CC/C=C(\CO)C[C@@H](OC(=O)/C(C)=C/C)[C@@H]12 |
| < 4.55 | C=C1C(=O)O[C@@H]2/C=C(\C)C[C@H](O)/C=C(\C)C[C@@H](OC(=O)/C(=C\C)CO)[C@@H]12 |
| < 4.60 | C=C1C(=O)O[C@@H]2/C=C(\C)CC/C=C(\C)C[C@@H](OC(=O)/C(=C/C)COC(C)=O)[C@@H]12 |
| < 4.54 | C=C1C(=O)O[C@@H]2/C=C(\C)CC/C=C(\C)C[C@@H](OC(=O)/C(=C/C)CO)[C@@H]12 |

| Structure (SMILES) | pIC50 |
| --- | --- |
| O=c1c(O)c(-c2ccc(O)c(O)c2)oc2cc(O)cc(O)c12 [2-(3,4-dihydroxyphenyl)-3,5,7-trihydroxy-chromone;hydrate] | 4.97 |
| C=C1C(=O)O[C@@H]2/C=C(\C)C[C@H](O)/C=C(\C)C[C@@H](OC(=O)/C(=C\C)COC(C)=O)[C@@H]12 | < 4.60 |
| C=C1C(=O)O[C@@H]2/C=C(\C)CC/C=C(\C)C[C@@H](OC(=O)/C(=C/CO)CO)[C@@H]12 | < 4.55 |
